Laboratory results reported in US20060135483A1, “Oxygen/nitrogen heterocycle inhibitors of tyrosine phosphatases” (priority 2004, published 2006).
pIC50: −log10 of the molar value.

Molecular target: T1, PTP-1B (Homo sapiens, UniProt P18031)
T1 construct: PTP-1B (purified, 1 mg/mL) as a 1:250 dilution
T1 sequence (P18031 1-321 limits assumed): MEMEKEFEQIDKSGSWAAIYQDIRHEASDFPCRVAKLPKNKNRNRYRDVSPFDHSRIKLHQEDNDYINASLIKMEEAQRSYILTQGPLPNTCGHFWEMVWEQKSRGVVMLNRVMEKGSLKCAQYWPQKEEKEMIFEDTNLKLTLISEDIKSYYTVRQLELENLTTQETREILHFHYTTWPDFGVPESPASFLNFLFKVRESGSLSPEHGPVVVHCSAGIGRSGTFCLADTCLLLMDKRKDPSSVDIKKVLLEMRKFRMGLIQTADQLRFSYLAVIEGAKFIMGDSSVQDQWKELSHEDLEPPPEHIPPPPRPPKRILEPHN
Assay: pNPP assay for tyrosine phosphatase inhibitory activity
Assay type: biochemical
Details: Table 1; pNPP substrate 10 mM, 30° C., 10 minutes, absorbance at 405 nm
Description: The compounds provided herein are evaluated for biological activity as inhibitors of PTP-1B using, for example, a pNPP assay. Such an assay can be used to screen compounds for tyrosine phosphatase inhibitory activity as shown in Example 39.
A 5× stock of pNPP (p-nitrophenol phosphate) substrate is prepared as 50 mM pNPP in assay buffer. Various tyrosine phosphatase solutions can be prepared as follows: • PTP-1B (purified, 1 mg/mL) as a 1:250 dilution (to a final concentration of 4:g/mL); • TC-PTP (NEB, 1000 units in 100:L) as a 1:50 dilution (to a final concentration of 2 U/10:L (4:g/mL)); • CD45 (Calbiochem, 20:g, 400 units in 100: L) as a 1 :50 dilution (to a final concentration of 0.8 U/10:L (4:g/mL)); • LAR (NEB, 1000 units in 200:L) as a 1:75 dilution (to a final concentration of 0.7 U/10:L (4:g/mL)); and • PTP-β (UBI, #14-350, 10,000 units, 40:g/571:L) as a 1:17.5 dilution (to a final concentration of 10 U/10:L (4:g/mL));
The compound to be tested is prepared as 1:16.7 and 1:50 dilutions from stock in a total volume of 1 00:M DMSO to give final concentrations of 626 and 200:M. The reaction mixtures are prepared in a 96-well microtiter plate (on ice) as 55:L assay buffer, 5:L of the diluted compound (to a final concentration of 31.3 and 10:M), 20:L of the pNPP substrate solution (to a final concentration of 10 mM) and 20:L PTPase in assay buffer. The reactants are mixed well, the plate placed in a water bath at 30° C. and incubated for 10 minutes. The reaction is then terminated by adding 1 OO:L of 2M K2CO3 per well, and the absorbance is measured at 405 nm by conventional means.
Unless otherwise indicated, this assay was used to determine activity for the selected compounds whose activity is recorded in Table 1 and Table 2.

Row | pIC50 | SMILES
1 | 5.00 to 6.00 | COC(=O)c1ccccc1Oc1cccc(-c2cnc(N(Cc3ccc(C(F)(F)P(=O)(O)O)c(Br)c3)c3ccc(Cl)c(Cl)c3)o2)c1 [Example 14, 2-(3-{2-[[3-Bromo-4-(difluoro-phosphono-methyl)-benzyl]-(3,4-dichloro-phenyl)amino]-oxazol-5-yl}-phenoxy)-benzoic acid methyl ester]
2 | > 7.00 | O=C(O)C(Oc1cccc(-c2cnc(N(Cc3ccc(C(F)(F)P(=O)(O)O)c(Br)c3)c3ccc(Cl)c(Cl)c3)o2)c1)c1ccccc1 (centres unmarked) [Example 16, (3-{2-[[3-Bromo-4-(difluoro-phosphono-methyl)-benzyl]-(3,4-dichloro-phenyl)-amino]-oxazol-5-yl}-phenoxy)-phenyl-acetic acid]
3 | > 7.00 | CS(=O)(=O)c1ccc(-c2cnc(N(Cc3ccc(C(F)(F)P(=O)(O)O)c(Br)c3)c3ccc(Cl)c(Cl)c3)o2)cc1 [Example 6, {[2-Bromo-4-({(3,4-dichloro-phenyl)-[5-(4-methanesulfonyl-phenyl)-oxazol-2-yl]-amino}-methyl)-phenyl]-difluoro-methyl}-phosphonic acid]
4 | 5.00 to 6.00 | COC(=O)C(Oc1cccc(-c2cnc(N(Cc3ccc(C(F)(F)P(=O)(O)O)c(Br)c3)c3ccc(Cl)c(Cl)c3)o2)c1)c1ccccc1 (centres unmarked) [Example 13, (3-{2-[[3-Bromo-4-(difluoro-phosphono-methyl)-benzyl]-(3,4-dichloro-phenyl)-amino]-oxazol-5-yl}-phenoxy)-phenyl-acetic acid methyl ester]
5 | 5.00 to 6.00 | COC(=O)c1cccc(Oc2cccc(-c3nnc(N(Cc4ccc(C(F)(F)P(=O)(O)O)cc4)c4ccc(Cl)c(Cl)c4)o3)c2)c1 [Example 22, 3-[3-(5-{(3,4-Dichloro-phenyl)-[4-(difluoro-phosphono-methyl)-benzyl]-amino}-[1,3,4]oxadiazol-2-yl)-phenoxy]-benzoic acid methyl ester]
6 | 6.30 to 7.00 | O=C(O)c1cccc(Oc2cccc(-c3nnc(N(Cc4ccc(C(F)(F)P(=O)(O)O)c(Br)c4)c4ccc(Cl)c(Cl)c4)o3)c2)c1 [Example 25, 3-(3-{5-[[3-Bromo-4-(difluoro-phosphono-methyl)-benzyl]-(3,4-dichloro-phenyl)-amino]-[1,3,4]oxadiazol-2-yl}-phenoxy)-benzoic acid]
7 | 6.30 to 7.00 | O=C(O)c1ccc(Oc2ccc(-c3cnc(N(Cc4ccc(C(F)(F)P(=O)(O)O)c(Br)c4)c4ccc(Cl)c(Cl)c4)o3)cc2)cc1 [Example 12, 4-(4-{2-[[3-Bromo-4-(difluoro-phosphono-methyl)-benzyl]-(3,4-dichloro-phenyl)-amino]-oxazol-5-yl}-phenoxy)-benzoic acid]
8 | 4.00 to 5.00 | O=C(O)c1ccc(CN(c2ccc(Cl)c(Cl)c2)c2nnc(-c3cccc(Oc4cccc(C(=O)O)c4)c3)o2)cc1 [Example 21]

Row | SMILES | pIC50
9 | CCOP(=O)(OCC)C(F)(F)c1ccc(CN(c2ccc(Cl)c(Cl)c2)c2ncc(-c3ccc(S(C)(=O)=O)cc3)o2)cc1Br [Example 8, {[2-Bromo-4-({(3,4-dichloro-phenyl)-[5-(4-methanesulfonyl-phenyl)-oxazol-2-yl]-amino}-methyl)-phenyl]-difluoro-methyl}-phosphonic acid diethyl ester] | 4.00 to 5.00
10 | CCOP(=O)(O)C(F)(F)c1ccc(CN(c2ccc(Cl)c(Cl)c2)c2ncc(-c3ccc(S(C)(=O)=O)cc3)o2)cc1Br [Example 9, {[2-Bromo-4-({(3,4-dichloro-phenyl)-[5-(4-methanesulfonyl-phenyl)-oxazol-2-yl]-amino}-methyl)-phenyl]-difluoro-methyl}-phosphonic acid monoethyl ester] | 4.00 to 5.00

Same assay, conditions: Table 2; pNPP substrate 10 mM, 30° C., 10 minutes, absorbance at 405 nm

Row | pIC50 | SMILES
11 | 6.30 to 7.00 | CS(=O)(=O)c1ccc(-c2cnc(N(Cc3ccc(C(F)(F)P(=O)(O)O)c(Cl)c3)c3ccc(Cl)c(Cl)c3)o2)cc1 [Example 31, {[2-Chloro-4-({(3,4-dichloro-phenyl)-[5-(4-methanesulfonyl-phenyl)-oxazol-2-yl]-amino}-methyl)-phenyl]-difluoro-methyl}-phosphonic acid]
12 | 4.00 to 5.00 | CC(C)OC(=O)OC(C)OP(=O)(O)C(F)(F)c1ccc(CN(c2ccc(F)cc2)c2ncc(-c3ccc(S(C)(=O)=O)cc3)o2)cc1Br (centres unmarked) [{[2-Bromo-4-({(4-fluoro-phenyl)-[5-(4-methanesulfonyl-phenyl)-oxazol-2-yl]-amino}-methyl)-phenyl]-difluoro-methyl}-phosphonic acid mono-(1-isopropoxycarbonyloxy-ethyl) ester]
13 | 6.00 to 6.30 | COc1ccccc1N(Cc1ccc(C(F)(F)P(=O)(O)O)c(Cl)c1)c1ncc(-c2ccc(S(C)(=O)=O)cc2)o1 [[(2-Chloro-4-{[[5-(4-methanesulfonyl-phenyl)-oxazol-2-yl]-(2-methoxy-phenyl)-amino]-methyl}-phenyl)-difluoro-methyl]-phosphonic acid]
14 | 6.00 to 6.30 | CN(Cc1ccc(C(F)(F)P(=O)(O)O)c(Br)c1)c1ncc(-c2ccc(-c3ccccc3C(=O)O)cc2)o1 [Example 26, 4′-{2-[[3-Bromo-4-(difluoro-phosphono-methyl)-benzyl]-methyl-amino]-oxazol-5-yl}-biphenyl-2-carboxylic acid]
15 | 5.00 to 6.00 | CCCCCCCCCCCCCCCCOCCCOP(=O)(O)C(F)(F)c1ccc(CN(c2ccc(F)cc2)c2ncc(-c3ccc(S(C)(=O)=O)cc3)o2)cc1Br [{[2-Bromo-4-({(4-fluoro-phenyl)-[5-(4-methanesulfonyl-phenyl)-oxazol-2-yl]-amino}-methyl)-phenyl]-difluoro-methyl}-phosphonic acid mono-(3-hexadecyloxy-propyl) ester]
16 | 6.00 to 6.30 | CS(=O)(=O)c1ccc(CN(Cc2ccc(C(F)(F)P(=O)(O)O)c(Br)c2)c2ncc(-c3ccc(S(C)(=O)=O)cc3)o2)cc1 [{[2-Bromo-4-({(4-methanesulfonyl-benzyl)-[5-(4-methanesulfonyl-phenyl)-oxazol-2-yl]-amino}-methyl)-phenyl]-difluoro-methyl}-phosphonic acid]
17 | > 7.00 | O=P(O)(O)C(F)(F)c1ccc(CN(c2ccc(F)cc2)c2ncc(-c3ccc(-c4nn[nH]n4)cc3)o2)cc1Br [Example 38, ({2-Bromo-4-[((4-fluoro-phenyl)-{5-[4-(2H-tetrazol-5-yl)-phenyl]-oxazol-^2-yl}-amino)-methyl]-phenyl}-difluoro-methyl)-phosphonic acid]
18 | 4.00 to 5.00 | CC(C)OC(=O)OC(C)OP(=O)(O)C(F)(F)c1ccc(CN(c2ccc(Cl)c(Cl)c2)c2ncc(-c3ccc(S(C)(=O)=O)cc3)o2)cc1Br (centres unmarked) [Example 33, {[2-Bromo-4-({(3,4-dichloro-phenyl)-[5-(4-methanesulfonyl-phenyl)-oxazol-2-yl]-amino}-methyl)-phenyl]-difluoro-methyl}-phosphonic acid mono-(1-isopropoxycarbonyloxy-ethyl) ester]

Row | SMILES | pIC50
19 | CS(=O)(=O)c1ccc(-c2cnc(N(Cc3ccc(C(F)(F)P(=O)(O)Oc4ccccc4)c(Br)c3)c3ccc(F)cc3)o2)cc1 [{[2-Bromo-4-({(4-fluoro-phenyl)-[5-(4-methanesulfonyl-phenyl)-oxazol-2-yl]-amino}-methyl)-phenyl]-difluoro-methyl}-phosphonic acid monophenyl ester] | 4.00 to 5.00

System: not given
Assay: not given
Details: not given

Row | melting point [°C] | SMILES
20 | 141 to 143 | CS(=O)(=O)c1ccc(-c2cnc(N(Cc3ccc(C(F)(F)P(=O)(O)O)c(Cl)c3)c3ccc(Cl)c(Cl)c3)o2)cc1 [Example 31, {[2-Chloro-4-({(3,4-dichloro-phenyl)-[5-(4-methanesulfonyl-phenyl)-oxazol-2-yl]-amino}-methyl)-phenyl]-difluoro-methyl}-phosphonic acid]
